Like-named read-outs stand apart in the source and are kept apart here.
What was measured:
[1] = test system: FASN activity in HepG2 cells; assay: [3H] glucose and acetate incorporation into lipids in HepG2 cells; format: cell-based; conditions: for EC50 / IC50: Homo sapiens
Description: To specifically identify inhibitors of FASN targeting its nucleotide binding pockets Cibacron blue Sepharose was utilized. This medium has been used previously to purify NAD and NADP binding proteins from crude tissues extracts (Miyaguchi et al., 2011; Muratsubaki et al., 1994). FASN enriched extract from lactating pig mammary gland was bound to the resin and labeled with cysteine reactive fluorescein. […] Next, the molecules were tested for their ability to inhibit FASN activity in a HepG2 cell based assay that measured the incorporation of ^3H glucose into lipids (FIG. 1B and FIG. 9).
Incorporation of radiolabeled glucose or acetate in total lipids was measured according to published methods (Haystead and Hardie, 1986). HepG2 cells (80% confluent in 12 wells plates) were starved overnight in MEM Alpha, the medium was then changed with DMEM medium containing 0.1 g/L glucose 10% FBS and 5 μM insulin and 1 μCi 3-[^3H] D-glucose or 1 μCi [^3H]-acetate in addition to different concentrations of each compound. After incubation for 1 hour at 37° C., 5% CO2, the cells were washed with ice cold PBS and detached by treating with 100 μl trypsin for 10 min then 1 ml of ice cold PBS was added. The cells suspension was then sonicated for 3 times in 30 seconds intervals and kept on ice. From each well 1 ml of cell lysate was added to a 4 ml scintillation vial and 2 ml of MicroScint-E was added. The vials were mixed thoroughly then centrifuged for 30 min at 3000 rpm and the ^3H radioactivity was measured by liquid scintillation counting.

[2] = test system: ATP binding proteins of BT474 cells lysate; assay: Elution of ATP Sepharose loaded with BT474 cells lysate; conditions: 1, 2.5, 5 and 10 mM
Description: FIGS. 13A-13D illustrate the characterization of purified FASN and Fasnall elution of ATP Sepharose. […] Lane 6 and 7 are 10 mM Staurosporine and 50 mM ATP, respectively, as positive controls.

BT474 cells = assay: Caspase 3/7 activity assay; format: cell-based; conditions: BT474, 24 hours
Description: (§1) The assay was performed using a similar protocol to the one described by Fritz et al (Fritz et al., 2001). Cells were seeded at a density of 10,000 cells/well and treated with different concentrations of HS-106 or C75. After 24 hours, to each well, 50 μl of Caspase assay/lysis buffer (50 mM HEPES pH 7.5, 100 mM KCl, 5 mM EDTA, 10 mM MgC12, 10 mM CHAPS, 20% Sucrose, 10 mM DTT, 10 μM of (Z-DEVD)2-Rh110 (Santa Cruz Biotech) and complete protease inhibitor (Roche))was added. After 6 hours of incubation at 37° C., fluorescence was measured at Ex/Em: 485/535 nm.

SKBR3 cells = assay: Caspase 3/7 activity assay; format: cell-based; conditions: SKBR3, 24 hours
Description: as §1

HIV-1 = assay: HIV/TZM-bl assay, extracellular p24 ELISA; format: cell-based
Description: HS-106 or C75 were dissolved in DMSO to achieve 10 mM stock concentration. The stock solution of each drug was serially diluted 3-fold with DMSO and 2 μL of each dilution was added to each well to achieve final concentration range from 10 μM to 4.6 nM fixing final [DMSO] at 1%. HIVNL4.3 was added to 3×10^4 TZM-bl cells at 10 ng/ml p24 equivalents in the presence of 15 μg/mL DEAE dextran. HIV-infected cells were incubated at 37° C. in 5% CO2 for 24 hours, washed with PBS, fresh media was added, and cell were incubated for another 24 hours. Supernatants were collected and stored at −80° C. until P24 ELISA assay. HIV-1 replication was assessed by quantitative p24 ELISA. Nevirapine (positive control) was obtained from the AIDS Reagent Repository and was used at […].

[3] = Description: To test if HS-106 is toxic to mice, two animal studies were initiated. In an acute toxicity study, mice received 80, 20, or 5 mg/kg HS-106 IP on day 1 and 3, and blood was collected on day 4.
In an acute toxicity study, FVB/J mice received 10, 40, or 160 pmol/kg HS-106 via intraperitoneal injection (IP) on days 1 and 3, and blood was collected on day 4. […] To test for the long term effects of HS-106, mice received biweekly IP injections of 10, 20, or 30 pmol/kg HS-106 for eight weeks. […] Next, we carried out pharmacokinetic (PK) studies to determine the uptake and bio-distribution of HS-106 in MMTV-Neu mice by LC-MS (FIG. 17).
Female FVB/J mice aged to 10-12 weeks (Jackson Labs, Maine) were intraperitonealy injected with HS-106 at the described doses twice weekly. Mice were monitored for signs of toxicity by standard Mouse Phase 1 Unit (MP1U; https://www.med.unc.edu/mousephase1) protocols and approved by UNC—CH IACUC. Prior to end of the study 150 μl of whole blood was drawn via submandibular bleed and used to determine hematology values, liver, and kidney functions. To determine the long term effects of HS-106 on mice weight, female FVB/J mice aged 12-16 weeks were treated with the indicated concentrations of HS-106 twice weekly by intraperitoneal injection for 60 days. Mice body mass was assessed weekly and were observed every day for signs of toxicity such as labored breathing and hunched posture.
Female FVB/J mice aged to 10-12 weeks (Jackson Labs, Maine) were intraperitonealy (IP) injected twice weekly with HS-106 at the described doses. Mice were monitored for signs of toxicity by standard Mouse Phase 1 Unit (M1P1U; https://www.med.unc.edu/mousephase1) protocols and approved by UNC—CH IACUC. Prior to end of the study 150 μl of whole blood was drawn via submandibular bleed and used to determine hematology values, liver, and kidney functions by HemaTrue Hematology Analyzer (HESKA, Loveland, Colo., USA) and VITROS® 350 Chemistry System (J&J, New Brunswick, N.J.) according to manufacturer protocols. To determine the long term effects of HS-106 on mice weight, female FVB/J mice aged 12-16 weeks were treated with the indicated concentrations of HS-106 twice weekly by IP injection for 60 days. Mice body mass was assessed weekly, and mice were observed daily for signs of toxicity (e.g. labored breathing and hunched posture).

## Cc1sc2ncnc(NC3CCN(Cc4ccccc4)C3)c2c1C (racemic) [HS-106, N-(1-benzylpyrrolidin-3-yI)-5,6-dimethylthieno[2,3-d]pyrimidin-4-amine]
[1]; FIG. 2D, cell line not stated
  inhibition of tritiated acetate incorporation into lipids: inhibit the incorporation of tritiated acetate into lipids
[1]; HepG2 cells
  rank among the 13 molecules tested, 3H glucose incorporation into lipids: most potent inhibitor
[1]; HepG2, read-out: EC50, blockade of acetate incorporation into total lipids
  EC50: 147 nM
[1]; HepG2, read-out: EC50, blockade of glucose incorporation into total lipids
  EC50: 213 nM
[1]; HepG2, read-out: IC50, incorporation of tritiated acetate into lipids
  IC50: 147 nM
[1]; HepG2, read-out: IC50, incorporation of tritiated glucose into lipids
  IC50: 213 nM
[2]
  elution of proteins from ATP Sepharose: does not elute any proteins more than DMSO
BT474 cells
  caspase activity relative to MCF10A cells: 10 fold
SKBR3 cells
  caspase activity relative to MCF10A cells: 2 fold
HIV-1; Human immunodeficiency virus 1, TZM-bl cells, 48 hours post infection, read-out: EC50, HIV-1 p24 production
  EC50: 213 nM
HIV-1; TZM-bl model
  antiviral index (TC50/EC50): 47
[3]; 160 pmol/kg IP days 1 and 3
  acute toxicity: toxic
[3]; 80 mg/kg IP day 1 and 3
  acute toxicity: acutely toxic
[3]; 5 and 20 mg/kg IP day 1 and 3, blood day 4
  acute toxicity, blood parameters: did not affect white blood cell count, hemoglobin levels, kidney, or liver function
[3]; 10 and 40 pmol/kg IP days 1 and 3, blood day 4
  acute toxicity, blood parameters: well tolerated with no adverse effects on white blood cell counts, hemoglobin levels, kidney, or liver functions
[3]; BIW IP injection, assessed weekly
  weight change: dose not induce weight change

Reference: US11679111B2, “Fatty acid synthase inhibitors” (priority 2016, dated 2023)
